In brackets after ≈: the same amount, converted by molar mass. Numbered stars: 1 amine (or outer) side, 2 acyl side, 3 side chain; on linkers, the order of the positions; unused ones are H or OH. Square brackets hold non-standard residues; d marks the D form. Peptide text beside a SMILES is read from it. ξ: configuration not given here. X3 = CC1(C)OCC2OC(N3C(=N)NCC3C(O)C(N[*:1])C(=O)[*:2])C3OC(C)(C)OC3C2O1; ξEnduracididine(βξ-OH,4'ξ) = N=C1NCC(C(O)C(N)C(=O)O)N1; ξPhe(βξ-Me) = CC(c1ccccc1)C(N)C(=O)O
Tests used:
Assay in all cases: in vitro antibacterial evaluation, MIC by broth dilution
Format in all cases: cell-based
Escherichia coli = details: 18 hours at 35° C.
Streptococcus sp. = details: broth dilution, 18 hours at 35° C.
How it was run: (§1)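 Following National Committee for Clinical Laboratory Standards recommendations (M7-A2), susceptibility was measured by dilution in Muller-Hinton II […]. Bacteria were seeded at 5×10^5 CFU/mL against compound concentrations from 64 down to 0.06 μg/mL.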

Staphylococcus sp. = details: broth dilution, 18 hours at 35° C.
How it was run: as §1

Enterococcus sp. = details: broth dilution, 18 hours at 35° C.
How it was run: as §1

COc1ccc(COCC2OC(OC3C(CO)OC(Oc4ccc(CC5NC(=O)C(C(C)c6ccccc6)NC(=O)CNC(=O)C(CO)NC(=O)C(C(O)C6CNC(=N)N6C6OC(CO)C(O)C(O)C6O)NC(=O)C(C(O)C6CNC(=N)N6)NC5=O)cc4)C(O)C3O)C(O)C(O)C2O)cc1F (stereo not drawn) [Example 237]
MIC Escherichia coli (ATCC 25922) (Escherichia coli): 64 µg/mL (≈ 44.6 µM) | MIC Escherichia coli (GC 4559) (Escherichia coli): 64 µg/mL (≈ 44.6 µM) | MIC Escherichia coli (GC 4560) (Escherichia coli): 1 µg/mL (≈ 0.698 µM) | MIC Streptococcus agalactiae (GC 4564) (Streptococcus sp.): 2 µg/mL (≈ 1.4 µM) | MIC Streptococcus pneumoniae (ATCC 6301) (Streptococcus sp.): 0.5 µg/mL (≈ 0.349 µM) | MIC Streptococcus pneumoniae (GC 1894) (Streptococcus sp.): 0.25 µg/mL (≈ 0.174 µM) | MIC Streptococcus pneumoniae (GC 4565) (Streptococcus sp.): 0.5 µg/mL (≈ 0.349 µM) | MIC Streptococcus pyogenes (GC 4563) (Streptococcus sp.): 1 µg/mL (≈ 0.698 µM) | MIC Streptococcus pneumoniae (ATCC 6301) (Streptococcus sp.; inoculum 5×10^5 CFU/mL, strain ATCC 6301): 0.5 µg/mL (≈ 0.349 µM) | MIC Streptococcus pneumoniae (GC 1894) (Streptococcus sp.; inoculum 5×10^5 CFU/mL, strain GC 1894): 0.25 µg/mL (≈ 0.174 µM) | MIC Streptococcus pyogenes (GC 4563) (Streptococcus sp.; inoculum 5×10^5 CFU/mL, strain GC 4563): 1 µg/mL (≈ 0.698 µM) | MIC Streptococcus agalactiae (GC 4564) (Streptococcus sp.; inoculum 5×10^5 CFU/mL, strain GC 4564): 2 µg/mL (≈ 1.4 µM) | MIC Streptococcus pneumoniae (GC 4565) (Streptococcus sp.; inoculum 5×10^5 CFU/mL, strain GC 4565): 0.5 µg/mL (≈ 0.349 µM) | MIC Coagulase Negative Staphylococcus (GC 4547) (Staphylococcus sp.): 2 µg/mL (≈ 1.4 µM) | MIC Coagulase Negative Staphylococcus (GC 4548) (Staphylococcus sp.): 1 µg/mL (≈ 0.698 µM) | MIC Coagulase Negative Staphylococcus (GC 4549) (Staphylococcus sp.): 1 µg/mL (≈ 0.698 µM) | MIC Coagulase Negative Staphylococcus (GC 4551) (Staphylococcus sp.): 4 µg/mL (≈ 2.79 µM) | MIC Coagulase Negative Staphylococcus (GC 6257) (Staphylococcus sp.): 1 µg/mL (≈ 0.698 µM) | MIC Staphylococcus aureus (ATCC 29213) (Staphylococcus sp.): 4 µg/mL (≈ 2.79 µM) | MIC Staphylococcus aureus (GC 1131) (Staphylococcus sp.): 4 µg/mL (≈ 2.79 µM) | MIC Staphylococcus aureus (GC 3051) (Staphylococcus sp.): 2 µg/mL (≈ 1.4 µM) | MIC Staphylococcus aureus (GC 3053) (Staphylococcus sp.): 4 µg/mL (≈ 2.79 µM) | MIC Staphylococcus aureus (GC 4541) (Staphylococcus sp.): 2 µg/mL (≈ 1.4 µM) | MIC Staphylococcus aureus (GC 4542) (Staphylococcus sp.): 8 µg/mL (≈ 5.58 µM) | MIC Staphylococcus aureus (GC 4544) (Staphylococcus sp.): 4 µg/mL (≈ 2.79 µM) | MIC Staphylococcus aureus (GC 4545) (Staphylococcus sp.): 2 µg/mL (≈ 1.4 µM) | MIC Staphylococcus aureus-SMITH (GC 4543) (Staphylococcus sp.): 2 µg/mL (≈ 1.4 µM) | MIC Staphylococcus haemolyticus (GC 4546) (Staphylococcus sp.): 1 µg/mL (≈ 0.698 µM) | MIC Staphylococcus aureus (ATCC 29213) (Staphylococcus sp.; strain ATCC 29213): 4 µg/mL (≈ 2.79 µM) | MIC Staphylococcus aureus (GC 1131) (Staphylococcus sp.; strain GC 1131): 4 µg/mL (≈ 2.79 µM) | MIC Staphylococcus aureus (GC 3051) (Staphylococcus sp.; strain GC 3051): 2 µg/mL (≈ 1.4 µM) | MIC Staphylococcus aureus (GC 3053) (Staphylococcus sp.; strain GC 3053): 4 µg/mL (≈ 2.79 µM) | MIC Staphylococcus aureus (GC 4541) (Staphylococcus sp.; strain GC 4541): 2 µg/mL (≈ 1.4 µM) | MIC Staphylococcus aureus (GC 4542) (Staphylococcus sp.; strain GC 4542): 8 µg/mL (≈ 5.58 µM) | MIC Staphylococcus aureus-SMITH (GC 4543) (Staphylococcus sp.; strain GC 4543): 2 µg/mL (≈ 1.4 µM) | MIC Staphylococcus aureus (GC 4544) (Staphylococcus sp.; strain GC 4544): 4 µg/mL (≈ 2.79 µM) | MIC Staphylococcus aureus (GC 4545) (Staphylococcus sp.; strain GC 4545): 2 µg/mL (≈ 1.4 µM) | MIC Staphylococcus haemolyticus (GC 4546) (Staphylococcus sp.; strain GC 4546): 1 µg/mL (≈ 0.698 µM) | MIC Coagulase Negative Staphylococcus (GC 4547) (Staphylococcus sp.; strain GC 4547): 2 µg/mL (≈ 1.4 µM) | MIC Coagulase Negative Staphylococcus (GC 4548) (Staphylococcus sp.; strain GC 4548): 1 µg/mL (≈ 0.698 µM) | MIC Coagulase Negative Staphylococcus (GC 4549) (Staphylococcus sp.; strain GC 4549): 1 µg/mL (≈ 0.698 µM) | MIC Coagulase Negative Staphylococcus (GC 4551) (Staphylococcus sp.; strain GC 4551): 4 µg/mL (≈ 2.79 µM) | MIC Coagulase Negative Staphylococcus (GC 6257) (Staphylococcus sp.; strain GC 6257): 1 µg/mL (≈ 0.698 µM) | MIC Enterococcus avium (GC 4558) (Enterococcus sp.): 16 µg/mL (≈ 11.2 µM) | MIC Enterococcus faecalis (ATCC 29212) (Enterococcus sp.): 16 µg/mL (≈ 11.2 µM) | MIC Enterococcus faecalis (GC 2242) (Enterococcus sp.): 16 µg/mL (≈ 11.2 µM) | MIC Enterococcus faecalis (GC 2691) (Enterococcus sp.): 16 µg/mL (≈ 11.2 µM) | MIC Enterococcus faecalis (GC 3059) (Enterococcus sp.): 32 µg/mL (≈ 22.3 µM) | MIC Enterococcus faecalis (GC 4552) (Enterococcus sp.): 16 µg/mL (≈ 11.2 µM) | MIC Enterococcus faecalis (GC 4553) (Enterococcus sp.): 16 µg/mL (≈ 11.2 µM) | MIC Enterococcus faecalis (GC 4554) (Enterococcus sp.): 32 µg/mL (≈ 22.3 µM) | MIC Enterococcus faecalis (GC 6189) (Enterococcus sp.): 16 µg/mL (≈ 11.2 µM) | MIC Enterococcus faecium (GC 2243) (Enterococcus sp.): 16 µg/mL (≈ 11.2 µM) | MIC Enterococcus faecium (GC 4556) (Enterococcus sp.): 16 µg/mL (≈ 11.2 µM) | MIC Enterococcus faecium (GC 4557) (Enterococcus sp.): 4 µg/mL (≈ 2.79 µM) | MIC Enterococcus faecalis (ATCC 29212) (Enterococcus sp.; strain ATCC 29212): 16 µg/mL (≈ 11.2 µM) | MIC Enterococcus faecium (GC 2243) (Enterococcus sp.; strain GC 2243): 16 µg/mL (≈ 11.2 µM) | MIC Enterococcus faecalis (GC 4552) (Enterococcus sp.; strain GC 4552): 16 µg/mL (≈ 11.2 µM) | MIC Enterococcus faecalis (GC 4553) (Enterococcus sp.; strain GC 4553): 16 µg/mL (≈ 11.2 µM) | MIC Enterococcus faecalis (GC 4554) (Enterococcus sp.; strain GC 4554): 32 µg/mL (≈ 22.3 µM) | MIC Enterococcus faecium (GC 4556) (Enterococcus sp.; strain GC 4556): 16 µg/mL (≈ 11.2 µM) | MIC Enterococcus faecium (GC 4557) (Enterococcus sp.; strain GC 4557): 4 µg/mL (≈ 2.79 µM) | MIC Enterococcus avium (GC 4558) (Enterococcus sp.; strain GC 4558): 16 µg/mL (≈ 11.2 µM) | MIC Enterococcus faecalis (GC 6189) (Enterococcus sp.; strain GC 6189): 16 µg/mL (≈ 11.2 µM) | MIC Enterococcus faecalis (GC 2242) (Enterococcus sp.; inoculum 5×10^5 CFU/mL, strain GC 2242): 16 µg/mL (≈ 11.2 µM) | MIC Enterococcus faecalis (GC 2691) (Enterococcus sp.; inoculum 5×10^5 CFU/mL, strain GC 2691): 16 µg/mL (≈ 11.2 µM) | MIC Enterococcus faecalis (GC 3059) (Enterococcus sp.; inoculum 5×10^5 CFU/mL, strain GC 3059): 32 µg/mL (≈ 22.3 µM)

CC(c1ccccc1)C1NC(=O)CNC(=O)C(CO)NC(=O)C(C(O)C2CNC(=N)N2C2OC3COC(C)(C)OC3C3OC(C)(C)OC32)NC(=O)C(C(O)C2CNC(=N)N2)NC(=O)C(Cc2ccc(O)cc2)NC1=O (stereo not drawn) [Example 247] (cyclo(G[ξPhe(βξ-Me)]Y[ξEnduracididine(βξ-OH,4'ξ)][X3]S); configuration not given here)
MIC Escherichia coli (ATCC 25922) (Escherichia coli): >64 µg/mL | MIC Escherichia coli (GC 4559) (Escherichia coli): >64 µg/mL | MIC Escherichia coli (GC 4560) (Escherichia coli): >64 µg/mL | MIC Streptococcus agalactiae (GC 4564) (Streptococcus sp.): >64 µg/mL | MIC Streptococcus pneumoniae (ATCC 6301) (Streptococcus sp.): >64 µg/mL | MIC Streptococcus pneumoniae (GC 1894) (Streptococcus sp.): >64 µg/mL | MIC Streptococcus pneumoniae (GC 4565) (Streptococcus sp.): >64 µg/mL | MIC Streptococcus pyogenes (GC 4563) (Streptococcus sp.): >64 µg/mL | MIC Coagulase Negative Staphylococcus (GC 4547) (Staphylococcus sp.): >64 µg/mL | MIC Coagulase Negative Staphylococcus (GC 4548) (Staphylococcus sp.): >64 µg/mL | MIC Coagulase Negative Staphylococcus (GC 4549) (Staphylococcus sp.): >64 µg/mL | MIC Coagulase Negative Staphylococcus (GC 4551) (Staphylococcus sp.): >64 µg/mL | MIC Coagulase Negative Staphylococcus (GC 6257) (Staphylococcus sp.): >64 µg/mL | MIC Staphylococcus aureus (ATCC 29213) (Staphylococcus sp.): >64 µg/mL | MIC Staphylococcus aureus (GC 1131) (Staphylococcus sp.): >64 µg/mL | MIC Staphylococcus aureus (GC 3051) (Staphylococcus sp.): >64 µg/mL | MIC Staphylococcus aureus (GC 3053) (Staphylococcus sp.): >64 µg/mL | MIC Staphylococcus aureus (GC 4541) (Staphylococcus sp.): >64 µg/mL | MIC Staphylococcus aureus (GC 4542) (Staphylococcus sp.): >64 µg/mL | MIC Staphylococcus aureus (GC 4544) (Staphylococcus sp.): >64 µg/mL | MIC Staphylococcus aureus (GC 4545) (Staphylococcus sp.): >64 µg/mL | MIC Staphylococcus aureus-SMITH (GC 4543) (Staphylococcus sp.): >64 µg/mL | MIC Staphylococcus haemolyticus (GC 4546) (Staphylococcus sp.): >64 µg/mL | MIC Enterococcus avium (GC 4558) (Enterococcus sp.): >64 µg/mL | MIC Enterococcus faecalis (ATCC 29212) (Enterococcus sp.): >64 µg/mL | MIC Enterococcus faecalis (GC 2242) (Enterococcus sp.): >64 µg/mL | MIC Enterococcus faecalis (GC 2691) (Enterococcus sp.): >64 µg/mL | MIC Enterococcus faecalis (GC 3059) (Enterococcus sp.): >64 µg/mL | MIC Enterococcus faecalis (GC 4552) (Enterococcus sp.): >64 µg/mL | MIC Enterococcus faecalis (GC 4553) (Enterococcus sp.): >64 µg/mL | MIC Enterococcus faecalis (GC 4554) (Enterococcus sp.): >64 µg/mL | MIC Enterococcus faecalis (GC 6189) (Enterococcus sp.): >64 µg/mL | MIC Enterococcus faecium (GC 2243) (Enterococcus sp.): >64 µg/mL | MIC Enterococcus faecium (GC 4556) (Enterococcus sp.): >64 µg/mL | MIC Enterococcus faecium (GC 4557) (Enterococcus sp.): >64 µg/mL

— patent US6914045B2, “Glycopeptide antibiotics” (Wyeth Holdings Corporation, priority 2001, dated 2005)
